Laboratory results reported in ChEMBL document CHEMBL4219077, “Methyllucidone inhibits STAT3 activity by regulating the expression of the protein tyrosine phosphatase MEG2 in DU145 prostate carcinoma cells” (Bioorg Med Chem Lett, 2018).
Calls of active or inactive are those of the source. The calls are words filed in the database; no cut-off is given here.

What was measured:
[1] = molecular target: T1, PTPN9/STAT3 (Homo sapiens) (UniProt P40763+P43378); assay: Modulation of MEG2 in human DU145 cells assessed as inhibition of STAT3 activation by measuring down regulation of Bcl2 level at 10 uM after 24 hrs by Western blot method; type: cell-based
T1 sequence (P40763 2-770 limits assumed): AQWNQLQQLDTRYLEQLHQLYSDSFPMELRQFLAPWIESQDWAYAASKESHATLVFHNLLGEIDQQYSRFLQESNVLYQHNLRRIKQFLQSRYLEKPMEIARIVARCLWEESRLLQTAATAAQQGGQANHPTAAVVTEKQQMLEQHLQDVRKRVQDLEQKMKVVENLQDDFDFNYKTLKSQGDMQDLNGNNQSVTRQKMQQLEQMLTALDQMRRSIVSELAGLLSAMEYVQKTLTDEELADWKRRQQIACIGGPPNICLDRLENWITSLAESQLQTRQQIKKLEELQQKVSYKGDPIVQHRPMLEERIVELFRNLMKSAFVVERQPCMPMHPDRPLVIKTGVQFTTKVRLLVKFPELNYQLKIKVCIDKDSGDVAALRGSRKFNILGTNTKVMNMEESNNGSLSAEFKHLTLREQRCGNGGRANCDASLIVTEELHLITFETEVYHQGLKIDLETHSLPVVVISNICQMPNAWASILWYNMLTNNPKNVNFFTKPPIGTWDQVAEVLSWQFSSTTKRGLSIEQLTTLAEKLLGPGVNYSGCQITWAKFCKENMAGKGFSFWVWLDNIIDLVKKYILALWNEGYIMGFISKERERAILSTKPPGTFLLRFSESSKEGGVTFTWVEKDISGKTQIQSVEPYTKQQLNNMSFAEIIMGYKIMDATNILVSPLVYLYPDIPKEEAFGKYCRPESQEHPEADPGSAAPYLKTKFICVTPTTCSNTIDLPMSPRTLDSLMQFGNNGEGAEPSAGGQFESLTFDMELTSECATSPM
T1 sequence (P43378 whole entry partner): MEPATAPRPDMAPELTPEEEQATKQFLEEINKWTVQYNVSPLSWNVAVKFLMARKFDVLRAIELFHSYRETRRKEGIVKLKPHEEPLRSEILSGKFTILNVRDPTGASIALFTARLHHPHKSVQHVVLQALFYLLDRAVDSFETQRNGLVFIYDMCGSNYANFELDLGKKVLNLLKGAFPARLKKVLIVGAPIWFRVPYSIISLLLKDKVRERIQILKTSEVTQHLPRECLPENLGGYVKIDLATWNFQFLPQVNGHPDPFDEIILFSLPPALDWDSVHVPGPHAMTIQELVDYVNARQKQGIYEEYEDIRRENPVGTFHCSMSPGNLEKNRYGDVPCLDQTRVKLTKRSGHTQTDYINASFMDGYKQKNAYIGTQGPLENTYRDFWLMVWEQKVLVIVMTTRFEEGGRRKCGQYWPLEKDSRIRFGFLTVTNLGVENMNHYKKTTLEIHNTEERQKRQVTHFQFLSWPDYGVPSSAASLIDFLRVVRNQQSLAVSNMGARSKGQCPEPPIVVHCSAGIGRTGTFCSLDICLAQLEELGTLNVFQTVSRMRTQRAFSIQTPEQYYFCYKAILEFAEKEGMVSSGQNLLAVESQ

DU-145 [2] = assay: Increase in cleaved caspase-3 level in human DU145 cells up to 10 uM after 24 hrs by Western blot method; type: functional, cell-based
[3] = molecular target: T1, PTPN9/STAT3 (Homo sapiens); assay: Modulation of MEG2 in human DU145 cells assessed as inhibition of STAT3 phosphorylation at Tyr-705 residue at 10 uM after 24 hrs in presence of phosphatase inhibitor Na3VO4 by Western blot method; type: cell-based
DU-145 [4] = assay: Effect on total STAT3 protein expression in human DU145 cells up to 20 uM after 24 hrs by Western blot method; type: ADME, cell-based; details: du-145, 24 h
[5] = molecular target: T1, PTPN9/STAT3 (Homo sapiens); assay: Modulation of MEG2 in human DU145 cells assessed as inhibition of STAT3 activation by measuring down regulation of survivin level at 10 uM after 24 hrs by Western blot method; type: cell-based
DU-145 [6] = assay: Induction of apoptosis in human DU145 cells assessed as decrease in procaspase-3 level up to 10 uM by Western blot method; type: functional, cell-based
[7] = molecular target: T2, Signal transducer and activator of transcription 5A (Homo sapiens) (UniProt P42229); assay: Inhibition of STAT5 phosphorylation in human DU145 cells after 24 hrs by Western blot method; type: cell-based
T2 sequence (whole entry): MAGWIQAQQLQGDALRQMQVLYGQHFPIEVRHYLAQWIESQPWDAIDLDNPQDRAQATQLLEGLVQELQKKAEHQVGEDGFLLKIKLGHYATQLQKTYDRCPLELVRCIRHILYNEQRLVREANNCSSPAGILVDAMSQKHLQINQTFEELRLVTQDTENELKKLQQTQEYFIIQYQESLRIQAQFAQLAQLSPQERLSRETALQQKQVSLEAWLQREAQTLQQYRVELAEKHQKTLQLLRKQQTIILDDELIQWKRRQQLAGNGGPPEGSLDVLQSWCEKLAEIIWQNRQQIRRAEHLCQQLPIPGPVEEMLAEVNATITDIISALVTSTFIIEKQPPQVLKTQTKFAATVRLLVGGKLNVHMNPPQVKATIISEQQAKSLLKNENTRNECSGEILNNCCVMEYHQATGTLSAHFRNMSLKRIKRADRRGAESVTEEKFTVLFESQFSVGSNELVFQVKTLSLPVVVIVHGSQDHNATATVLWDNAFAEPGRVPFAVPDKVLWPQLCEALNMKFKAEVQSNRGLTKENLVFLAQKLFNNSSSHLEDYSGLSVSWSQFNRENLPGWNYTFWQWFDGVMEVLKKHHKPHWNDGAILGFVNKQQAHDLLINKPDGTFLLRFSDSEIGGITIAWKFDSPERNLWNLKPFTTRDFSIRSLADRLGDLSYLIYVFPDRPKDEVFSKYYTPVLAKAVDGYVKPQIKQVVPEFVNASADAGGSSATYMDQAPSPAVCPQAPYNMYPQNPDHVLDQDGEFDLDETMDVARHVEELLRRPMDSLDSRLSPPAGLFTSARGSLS

[8] = molecular target: Janus Kinase (JAK) (Homo sapiens) (UniProt P52333+P23458+O60674+P29597); assay: Inhibition of JAK phosphorylation (unknown origin); type: protein assay
DU-145 [9] = assay: Cell cycle arrest in human DU145 cells assessed as accumulation at G2/M phase at 10 uM after 48 hrs by FACS analysis (reference value: 24%); type: functional
DU-145 [10] = assay: Cell cycle arrest in human DU145 cells assessed as accumulation at G0/G1 phase at 10 uM after 48 hrs by FACS analysis (reference value: 41.1%); type: functional
[11] = molecular target: Proto-oncogene tyrosine-protein kinase Src (Homo sapiens) (UniProt P12931); assay: Inhibition of SRC phosphorylation (unknown origin)
Chain of Proto-oncogene tyrosine-protein kinase Src (Homo sapiens) (P12931 2-536 limits assumed): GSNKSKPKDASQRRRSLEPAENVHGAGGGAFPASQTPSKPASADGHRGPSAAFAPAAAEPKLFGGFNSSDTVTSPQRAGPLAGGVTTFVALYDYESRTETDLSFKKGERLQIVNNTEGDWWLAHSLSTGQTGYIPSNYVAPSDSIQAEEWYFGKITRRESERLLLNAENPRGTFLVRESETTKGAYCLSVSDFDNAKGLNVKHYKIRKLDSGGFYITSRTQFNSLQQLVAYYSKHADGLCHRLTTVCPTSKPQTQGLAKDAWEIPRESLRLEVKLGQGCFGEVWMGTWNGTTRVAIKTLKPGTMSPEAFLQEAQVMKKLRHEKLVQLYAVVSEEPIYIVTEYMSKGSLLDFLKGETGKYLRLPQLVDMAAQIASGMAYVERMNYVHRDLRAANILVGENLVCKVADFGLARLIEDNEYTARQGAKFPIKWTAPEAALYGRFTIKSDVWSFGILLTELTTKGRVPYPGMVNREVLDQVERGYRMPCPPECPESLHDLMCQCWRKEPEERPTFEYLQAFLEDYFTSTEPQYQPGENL

[12] = molecular target: Protein farnesyltransferase (Homo sapiens, UniProt P49354+P49356); assay: Inhibition of FPTase (unknown origin); type: protein-complex assay
[13] = molecular target: T1, PTPN9/STAT3 (Homo sapiens); assay: Modulation of MEG2 in human LNCAP cells assessed as inhibition of IL-6-stimulated STAT3 phosphorylation at 10 uM pretreated for 12 hrs followed by IL-6 stimulation for 30 mins by Western blot method; type: cell-based
LNCaP = assay: Antiproliferative activity against human LNCAP cells by WST1 assay; type: functional, cell-based
PC-3 = assay: Antiproliferative activity against human PC3 cells by WST1 assay; type: functional, cell-based
DU-145 [14] = assay: Cell cycle arrest in human DU145 cells assessed as accumulation at G0/G1 phase at 10 uM after 24 hrs by FACS analysis (reference value: 41.1%); type: functional
DU-145 [15] = assay: Increase in MEG2 protein expression in human DU145 cells at 10 uM by Western blot method; type: functional, cell-based; details: TDE = time-dependent effect
[16] = molecular target: T1, PTPN9/STAT3 (Homo sapiens); assay: Modulation of MEG2 in human DU145 cells assessed as inhibition of STAT3 phosphorylation at Tyr-705 residue at 20 uM after 24 hrs by Western blot method; type: cell-based
[17] = molecular target: T3, Signal transducer and activator of transcription 1-alpha/beta (Homo sapiens) (UniProt P42224); assay: Inhibition of STAT1 phosphorylation in human DU145 cells after 24 hrs by Western blot method; type: cell-based
T3 sequence (whole entry): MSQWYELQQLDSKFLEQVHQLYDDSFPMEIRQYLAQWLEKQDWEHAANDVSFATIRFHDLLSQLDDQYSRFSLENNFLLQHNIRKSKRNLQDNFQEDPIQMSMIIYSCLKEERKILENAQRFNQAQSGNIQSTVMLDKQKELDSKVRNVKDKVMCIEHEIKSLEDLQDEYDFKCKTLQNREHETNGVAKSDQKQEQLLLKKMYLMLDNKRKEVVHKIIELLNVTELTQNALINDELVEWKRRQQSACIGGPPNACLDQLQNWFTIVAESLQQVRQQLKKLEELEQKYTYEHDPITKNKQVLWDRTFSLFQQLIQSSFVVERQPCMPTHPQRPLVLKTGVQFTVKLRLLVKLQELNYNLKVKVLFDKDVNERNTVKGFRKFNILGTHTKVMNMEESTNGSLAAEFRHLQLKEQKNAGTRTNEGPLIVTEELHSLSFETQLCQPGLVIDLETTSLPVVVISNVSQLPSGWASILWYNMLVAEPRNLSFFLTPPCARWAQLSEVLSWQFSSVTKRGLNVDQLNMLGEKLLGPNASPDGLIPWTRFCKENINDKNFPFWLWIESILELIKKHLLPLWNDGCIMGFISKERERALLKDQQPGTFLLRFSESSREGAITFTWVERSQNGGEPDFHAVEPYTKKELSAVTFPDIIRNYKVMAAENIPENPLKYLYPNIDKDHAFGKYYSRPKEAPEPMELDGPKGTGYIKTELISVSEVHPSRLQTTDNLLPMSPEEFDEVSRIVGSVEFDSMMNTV

DU-145 [18] = assay: Cell cycle arrest in human DU145 cells assessed as accumulation at S phase at 10 uM after 48 hrs by FACS analysis (reference value: 7.7%); type: functional
DU-145 [19] = assay: Cell cycle arrest in human DU145 cells assessed as apoptotic cells at 10 uM after 24 hrs by FACS analysis (reference value: 8.1%); type: functional
DU-145 [20] = assay: Cell cycle arrest in human DU145 cells assessed as accumulation at G2/M phase at 10 uM after 24 hrs by FACS analysis (reference value: 24%); type: functional
[21] = molecular target: T1, PTPN9/STAT3 (Homo sapiens); assay: Modulation of MEG2 in human DU145 cells assessed as inhibition of STAT3 activation by measuring down regulation of Cyclin D1 level at 10 uM after 24 hrs by Western blot method; type: cell-based
DU-145 [22] = assay: Cell cycle arrest in human DU145 cells assessed as accumulation at G0/G1 phase at 10 uM after 12 hrs by FACS analysis (reference value: 41.1%); type: functional
[23] = molecular target: T1, PTPN9/STAT3 (Homo sapiens); assay: Modulation of MEG2 in human HCT116 cells harboring pSTAT3 (unknown origin)-TA-Luc assessed as inhibition of STAT3 transcriptional activity after 24 hrs by luciferase reporter gene assay; type: cell-based
DU-145 [24] = assay: Cell cycle arrest in human DU145 cells assessed as apoptotic cells at 10 uM after 48 hrs by FACS analysis (reference value: 8.1%); type: functional
[25] = molecular target: T1, PTPN9/STAT3 (Homo sapiens); assay: Modulation of MEG2 in human DU145 cells assessed as inhibition of STAT3 activation by measuring down regulation of Mcl1 level at 10 uM after 24 hrs by Western blot method; type: cell-based
DU-145 [26] = assay: Cell cycle arrest in human DU145 cells assessed as apoptotic cells at 10 uM after 12 hrs by FACS analysis (reference value: 8.1%); type: functional
DU-145 [27] = assay: Cell cycle arrest in human DU145 cells assessed as accumulation at S phase at 10 uM after 12 hrs by FACS analysis (reference value: 7.7%); type: functional
DU-145 [28] = assay: Cell cycle arrest in human DU145 cells assessed as accumulation at S phase at 10 uM after 24 hrs by FACS analysis (reference value: 7.7%); type: functional
DU-145 [29] = assay: Cell cycle arrest in human DU145 cells assessed as accumulation at G2/M phase at 10 uM after 12 hrs by FACS analysis (reference value: 24%); type: functional
DU-145 [30] = assay: Antiproliferative activity against human DU145 cells after 48 hrs by WST1 assay; type: functional; details: DU-145, 48 h
[31] = molecular target: T1, PTPN9/STAT3 (Homo sapiens); assay: Modulation of MEG2 in human DU145 cells assessed as inhibition of STAT3 activation by measuring down regulation of Cyclin A level at 10 uM after 24 hrs by Western blot method; type: cell-based
[32] = molecular target: Signal transducer and activator of transcription 3 (Homo sapiens) (UniProt P40763); assay: Inhibition of STAT3 phosphorylation at Tyr-705 residue in human DU145 cells harboring MEG2 siRNA at 10 uM after 12 hrs by Western blot method; type: cell-based
Chain of Signal transducer and activator of transcription 3 (Homo sapiens) (P40763 whole entry): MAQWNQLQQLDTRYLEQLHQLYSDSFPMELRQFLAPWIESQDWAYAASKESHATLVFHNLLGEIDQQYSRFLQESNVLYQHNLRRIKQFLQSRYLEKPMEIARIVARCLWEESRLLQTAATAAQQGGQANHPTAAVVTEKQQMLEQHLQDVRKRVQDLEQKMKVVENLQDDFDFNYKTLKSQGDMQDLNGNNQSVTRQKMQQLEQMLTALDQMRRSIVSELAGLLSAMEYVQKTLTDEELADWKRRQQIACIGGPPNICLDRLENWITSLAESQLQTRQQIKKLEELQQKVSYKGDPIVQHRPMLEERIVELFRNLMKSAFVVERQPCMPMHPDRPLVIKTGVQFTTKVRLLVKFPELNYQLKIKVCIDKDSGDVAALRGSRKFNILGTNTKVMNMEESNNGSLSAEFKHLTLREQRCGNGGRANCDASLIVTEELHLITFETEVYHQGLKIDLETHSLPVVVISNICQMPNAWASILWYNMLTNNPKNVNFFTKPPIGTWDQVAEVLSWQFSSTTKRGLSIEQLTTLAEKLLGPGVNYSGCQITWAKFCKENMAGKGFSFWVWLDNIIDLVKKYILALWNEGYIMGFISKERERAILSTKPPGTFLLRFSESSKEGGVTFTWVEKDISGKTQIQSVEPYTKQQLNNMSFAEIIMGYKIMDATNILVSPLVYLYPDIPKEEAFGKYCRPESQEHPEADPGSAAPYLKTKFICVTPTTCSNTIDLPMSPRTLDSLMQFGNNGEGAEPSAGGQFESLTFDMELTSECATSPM

[33] = molecular target: Signal transducer and activator of transcription 3 (Homo sapiens) (UniProt P40763); assay: Inhibition of STAT3 phosphorylation at Tyr-705 residue in human DU145 cells harboring SHP2 siRNA at 10 uM after 12 hrs by Western blot method; type: cell-based

inhibition [1]: Active
inhibition [3]: inactive
inhibition [7]: inactive
inhibition [8]: inactive
inhibition [11]: inactive
IC50 [12]: > 40 µM
inhibition [13]: Active
inhibition [16]: > 90%
inhibition [17]: inactive
inhibition [21]: Active
inhibition [23]: Dose-dependent effect
inhibition [25]: Active
GI50 (DU-145 [30]): 15 µM
inhibition [31]: Active
inhibition [32]: inactive
inhibition [33]: Active
Compound: COC1=CC(=O)/C(=C(\C=C\c2ccccc2)OC)C1=O
Activity (DU-145 [2]): inactive
Activity (DU-145 [4]): Non-Toxic
inhibition [5]: Active
Activity (DU-145 [6]): Active
Activity (DU-145 [9]): 31.6%
Activity (DU-145 [10]): 36.7%
Activity (LNCaP): inactive
Activity (PC-3): inactive
Activity (DU-145 [14]): 50.3%
Activity (DU-145 [15]): Tde
Activity (DU-145 [18]): 5.6%
Activity (DU-145 [19]): 8.5%
Activity (DU-145 [20]): 23.6%
Activity (DU-145 [22]): 43.5%
Activity (DU-145 [24]): 20.8%
Activity (DU-145 [26]): 4.5%
Activity (DU-145 [27]): 7.8%
Activity (DU-145 [28]): 4.1%
Activity (DU-145 [29]): 34%
